From patent US20260144788A1, “COMPOUND FOR SHP2 PROTEIN DEGRADATION AND MEDICAL USES THEREOF” (UBIX THERAPEUTICS, INC., priority 2022, published 2026)

Target: T1, SHP2 protein (Homo sapiens, UniProt Q06124)
T1 sequence (Q06124 1-593): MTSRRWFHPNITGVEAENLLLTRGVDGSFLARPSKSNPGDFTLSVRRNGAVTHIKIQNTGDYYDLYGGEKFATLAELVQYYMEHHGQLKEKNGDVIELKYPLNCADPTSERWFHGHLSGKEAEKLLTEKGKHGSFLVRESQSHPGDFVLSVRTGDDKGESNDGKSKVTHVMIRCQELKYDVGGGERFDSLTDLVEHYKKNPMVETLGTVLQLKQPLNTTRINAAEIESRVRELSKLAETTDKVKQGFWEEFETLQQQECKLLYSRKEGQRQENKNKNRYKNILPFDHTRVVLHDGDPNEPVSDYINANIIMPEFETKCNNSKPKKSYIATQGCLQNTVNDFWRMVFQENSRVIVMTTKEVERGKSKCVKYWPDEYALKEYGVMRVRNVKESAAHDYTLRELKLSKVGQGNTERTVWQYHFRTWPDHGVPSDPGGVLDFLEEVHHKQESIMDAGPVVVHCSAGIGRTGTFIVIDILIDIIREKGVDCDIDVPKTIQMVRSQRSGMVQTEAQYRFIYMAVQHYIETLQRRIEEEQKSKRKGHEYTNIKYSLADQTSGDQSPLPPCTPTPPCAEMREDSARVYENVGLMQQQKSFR
Assay: Measurement of SHP2 protein degradation in NCI-H358 cells (western blotting)
Format: cell-based
Set-up: endogenous in cells; host or cells: NCI-H358
Settings: harvested after 24 hours
Procedure, shortened: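 H358 cells in RPMI1640/25 mM HEPES/10% FBS, cultured 24 h, then exposed to compound at final 0.001, 0.01 and 0.1 μM for 24 h against a DMSO control. Lysates were normalised for protein by BCA and probed by western blot for SHP2, with GAPDH as loading control.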

Row | SHP2% degradation (0.01 μM) [%] | SHP2% degradation (0.1 μM) [%] | Structure (SMILES)
1 | 30.1 | 80.2 | Cc1cc(C(C(=O)N2C[C@H](O)C[C@H]2C(=O)NCc2ccc(-c3scnc3C)cc2OC2CCN(C(=O)C3CCN(c4nccc(Sc5cnc(N6CCC(C)(CN)CC6)cn5)c4Cl)CC3)CC2)C(C)C)on1 (stereo partly drawn) [Example 92, (2S,4R)—N-(2-((1-(1-(4-((5-(4-(aminomethyl)-4-methylpiperidin-1-yl)pyrazin-2-yl)thio)-3-chloropyridin-2-yl)piperidine-4-carbonyl)piperidin-4-yl)oxy)-4-(4-methylthiazol-5-yl)benzyl)-4-hydroxy-1-(3-methyl-2-(3-methylisoxazol-5-yl)butanoyl)pyrrolidine-2-carboxamide]
2 | 99.9 | 99.9 | Cc1cc(C(C(=O)N2C[C@H](O)C[C@H]2C(=O)NCc2ccc(-c3scnc3C)cc2OC2CCN(C(=O)C3CCN(c4nccc(Sc5cnc(N6CCC(C)(CN)CC6)cn5)c4Cl)CC3)CC2)C(C)C)on1 (stereo partly drawn) [Example 93, (2S,4R)—N-(2-((1-(1-(4-((5-(4-(aminomethyl)-4-methylpiperidin-1-yl)pyrazin-2-yl)thio)-3-chloropyridin-2-yl)piperidine-4-carbonyl)piperidin-4-yl)oxy)-4-(4-methylthiazol-5-yl)benzyl)-4-hydroxy-1-(3-methyl-2-(3-methylisoxazol-5-yl)butanoyl)pyrrolidine-2-carboxamide]
3 | 95.5 | 100.0 | Cc1cc(C(C(=O)N2C[C@H](O)C[C@H]2C(=O)NCc2ccc(-c3scnc3C)cc2OC2CCN(C(=O)C3CCN(c4nccc(Sc5cnc(N6CCC(C)(N)CC6)cn5)c4Cl)CC3)CC2)C(C)C)on1 (stereo partly drawn) [Example 94, (2S,4R)—N-(2-((1-(1-(4-((5-(4-amino-4-methylpiperidin-1-yl)pyrazin-2-yl)thio)-3-chloropyridin-2-yl)piperidine-4-carbonyl)piperidin-4-yl)oxy)-4-(4-methylthiazol-5-yl)benzyl)-4-hydroxy-1-(3-methyl-2-(3-methylisoxazol-5-yl)butanoyl)pyrrolidine-2-carboxamide]
4 | 99.2 | 99.7 | Cc1cc(C(C(=O)N2C[C@H](O)C[C@H]2C(=O)NCc2ccc(-c3scnc3C)cc2OC2CCN(C(=O)C3CCN(c4nccc(Sc5cnc(N6CCC7(CC6)CO[C@@H](C)[C@H]7N)cn5)c4Cl)CC3)CC2)C(C)C)on1 (stereo partly drawn) [Example 95, (2S,4R)—N-(2-((1-(1-(4-((5-((3S,4S)-4-amino-3-methyl-2-oxa-8-azaspiro[4.5]decan-8-yl)pyrazin-2-yl)thio)-3-chloropyridin-2-yl)piperidine-4-carbonyl)piperidin-4-yl)oxy)-4-(4-methylthiazol-5-yl)benzyl)-4-hydroxy-1-(3-methyl-2-(3-methylisoxazol-5-yl)butanoyl)pyrrolidine-2-carboxamide]
5 | 98.9 | 99.9 | Cc1cc(C(C(=O)N2C[C@H](O)C[C@H]2C(=O)NCc2ccc(-c3scnc3C)cc2OC2CCN(C(=O)C3CCN(c4nccc(Sc5cnc(N6CCC(C)(CN)CC6)c(CO)n5)c4Cl)CC3)CC2)C(C)C)on1 (stereo partly drawn) [Example 96, (2S,4R)—N-(2-((1-(1-(4-((5-(4-(aminomethyl)-4-methylpiperidin-1-yl)-6-(hydroxymethyl)pyrazin-2-yl)thio)-3-chloropyridin-2-yl)piperidine-4-carbonyl)piperidin-4-yl)oxy)-4-(4-methylthiazol-5-yl)benzyl)-4-hydroxy-1-(3-methyl-2-(3-methylisoxazol-5-yl)butanoyl)pyrrolidine-2-carboxamide]
6 | 95.0 | 99.7 | Cc1cc(C(C(=O)N2C[C@H](O)C[C@H]2C(=O)NCc2ccc(-c3scnc3C)cc2OC2CCN(C(=O)C3CCN(c4nccc(Sc5cnc(N6CCC(C)(N)CC6)c(CO)n5)c4Cl)CC3)CC2)C(C)C)on1 (stereo partly drawn) [Example 97, (2S,4R)—N-(2-((1-(1-(4-((5-(4-amino-4-methylpiperidin-1-yl)-6-(hydroxymethyl)pyrazin-2-yl)thio)-3-chloropyridin-2-yl)piperidine-4-carbonyl)piperidin-4-yl)oxy)-4-(4-methylthiazol-5-yl)benzyl)-4-hydroxy-1-(3-methyl-2-(3-methylisoxazol-5-yl)butanoyl)pyrrolidine-2-carboxamide]
7 | 99.6 | 99.7 | Cc1cc(C(C(=O)N2C[C@H](O)C[C@H]2C(=O)NCc2ccc(-c3scnc3C)cc2OC2CCN(C(=O)C3CCN(c4nccc(Sc5cnc(N6CCC7(CC6)CO[C@@H](C)[C@H]7N)c(CO)n5)c4Cl)CC3)CC2)C(C)C)on1 (stereo partly drawn) [Example 98, (2S,4R)—N-(2-((1-(1-(4-((5-((3S,4S)-4-amino-3-methyl-2-oxa-8-azaspiro[4.5]decan-8-yl)-6-(hydroxymethyl)pyrazin-2-yl)thio)-3-chloropyridin-2-yl)piperidine-4-carbonyl)piperidin-4-yl)oxy)-4-(4-methylthiazol-5-yl)benzyl)-4-hydroxy-1-(3-methyl-2-(3-methylisoxazol-5-yl)butanoyl)pyrrolidine-2-carboxamide]
8 | −4.8 | 91.5 | Cc1cnn(C(C(=O)N2C[C@H](O)C[C@H]2C(=O)NCc2ccc(-c3scnc3C)cc2OC2CCN(C(=O)C3CCN(c4nccc(Sc5cnc(N6CCC(C)(CN)CC6)cn5)c4Cl)CC3)CC2)C(C)C)c1 (stereo partly drawn) [Example 99, (2S,4R)—N-(2-((1-(1-(4-((5-(4-(aminomethyl)-4-methylpiperidin-1-yl)pyrazin-2-yl)thio)-3-chloropyridin-2-yl)piperidine-4-carbonyl)piperidin-4-yl)oxy)-4-(4-methylthiazol-5-yl)benzyl)-4-hydroxy-1-(3-methyl-2-(4-methyl-1H-pyrazol-1-yl)butanoyl)pyrrolidine-2-carboxamide]
9 | −65.7 | −18.7 | Cc1cnn(C(C(=O)N2C[C@H](O)C[C@H]2C(=O)NCc2ccc(-c3scnc3C)cc2OC2CCN(C(=O)C3CCN(c4nccc(Sc5cnc(N6CCC(C)(CN)CC6)cn5)c4Cl)CC3)CC2)C(C)C)c1 (stereo partly drawn) [Example 100, (2S,4R)—N-(2-((1-(1-(4-((5-(4-(aminomethyl)-4-methylpiperidin-1-yl)pyrazin-2-yl)thio)-3-chloropyridin-2-yl)piperidine-4-carbonyl)piperidin-4-yl)oxy)-4-(4-methylthiazol-5-yl)benzyl)-4-hydroxy-1-(3-methyl-2-(4-methyl-1H-pyrazol-1-yl)butanoyl)pyrrolidine-2-carboxamide]
10 | 96.3 | 97.4 | Cc1ncsc1-c1ccc(CNC(=O)[C@@H]2C[C@@H](O)CN2C(=O)[C@H](C(C)C)n2cc(C3CC3)nn2)c(OC2CCN(C(=O)C3CCN(c4nccc(Sc5cnc(N6CCC(C)(CN)CC6)cn5)c4Cl)CC3)CC2)c1 [Example 101, (2S,4R)—N-(2-((1-(1-(4-((5-(4-(aminomethyl)-4-methylpiperidin-1-yl)pyrazin-2-yl)thio)-3-chloropyridin-2-yl)piperidine-4-carbonyl)piperidin-4-yl)oxy)-4-(4-methylthiazol-5-yl)benzyl)-1-((S)-2-(4-cyclopropyl-1H-1,2,3-triazol-1-yl)-3-methylbutanoyl)-4-hydroxypyrrolidine-2-carboxamide]
